According to patent US20100197914A1, “Purine Derivatives as Adenosine Al Receptor Ligands” (priority 2007, published 2010):

These compounds were tested against T1, adenosine A1 receptor (Homo sapiens, UniProt P30542) (assay: In vitro functional activity based on the stimulation of [35S]-GTPγS binding (SPA, agonist format)). Details: mean of >2 measurements; A1 membranes, [35S]-GTPγS SPA assay; read-out: Mean pEC50 (converted).
T1 sequence (P30542 1-326): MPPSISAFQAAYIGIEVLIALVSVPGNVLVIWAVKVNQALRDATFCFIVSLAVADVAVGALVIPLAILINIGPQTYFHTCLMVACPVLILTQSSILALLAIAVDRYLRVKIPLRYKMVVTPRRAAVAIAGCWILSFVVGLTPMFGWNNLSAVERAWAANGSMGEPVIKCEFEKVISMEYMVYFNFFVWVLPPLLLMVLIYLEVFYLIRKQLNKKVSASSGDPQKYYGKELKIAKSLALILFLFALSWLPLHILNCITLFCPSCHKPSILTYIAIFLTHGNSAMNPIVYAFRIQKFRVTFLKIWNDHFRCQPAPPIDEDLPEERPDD
Format: biochemical
From the text: In Vitro Functional Activity at the Human a Receptor Based on the Stimulation of [^35S]-GTPγS Binding
In brief the assay is based on the conventional GTPγS binding assay described by ([Lorenzen A, Guerra L, Vogt H, et al, (1996)] Interaction of full and partial agonists of the A1 adenosine receptor with receptor/G protein complexes in rat brain membranes. Mol Pharmacol. 49(5):915-26) The assay is run as a SPA assay where the A1 membranes are captured by wheatgerm agglutinin (WGA) SPA beads, through a specific interaction between WGA and carbohydrate residues of glycoprotein's on the surfaces for the membranes. Upon receptor stimulation, [^35S]-GTPγS binds specifically to the alpha subunit of the G-protein thus bringing the [^35S]-GTPγS into close proximity with the SPA beads. Emitted β particles from the [^35S]-GTPγS excite the scintillant in the beads and produce light. […] The assays were performed in a final volume of 250 μL per well in a white non-binding surface 96-well Optiplates and could be run in either an agonist format, or an antagonist format (pre-incubation with an EC50 concentration of the appropriate receptor agonist).

| EC50 [nM] | SMILES |
| --- | --- |
| 47.9 | CCC(=O)N[C@H]1C[C@@H](n2cnc3c(NC4CCCC4)ncnc32)[C@H](O)[C@@H]1O [Example 1, N-[(1S,2R,3S,4R)-4-(6-Cyclopentylamino-purin-9-yl)-2,3-dihydroxy-cyclopentyl]-propionamide] |
| 67.7 | CCC(=O)N[C@H]1C[C@@H](n2cnc3c(NC4CCCC4)nc(Cl)nc32)[C@H](O)[C@@H]1O [Example 2, N-[(1S,2R,3S,4R)-4-(2-Chloro-6-cyclopentylamino-purin-9-yl)-2,3-dihydroxy-cyclopentyl]-propionamide] |
| 97.9 | O=C(CO)N[C@H]1C[C@@H](n2cnc3c(NC4CCCC4)ncnc32)[C@H](O)[C@@H]1O [Example 3, N-[(1S,2R,3S,4R)-4-(6-Cyclopentylamino-purin-9-yl)-2,3-dihydroxy-cyclopentyl]-2-hydroxy-acetamide] |
| 40.1 | O=C(CO)N[C@H]1C[C@@H](n2cnc3c(NC4CCCC4)nc(Cl)nc32)[C@H](O)[C@@H]1O [Example 4, N-[(1S,2R,3S,4R)-4-(2-Chloro-6-cyclopentylamino-purin-9-yl)-2,3-dihydroxy-cyclopentyl]-2-hydroxy-acetamide] |
